From ChEMBL document CHEMBL1201862, “PubChem BioAssay data set” (2004)
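Growth conditions: 96-well plates. Treatment: test compound, 48 hours, 5 concentrations. Analysis: linear interpolation between bracketing concentrations; unreached endpoints set to highest concentration. Here, GI50 denotes the concentration required for 50% inhibition of growth.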 Calls of active or inactive are those of the source. Rule as the data show it: active = GI50 up to about 1.1 µM and inactive = higher.

Columns and labels:
Test in all cases: DTP human tumour cell line panel, 48 h
[1] = tested on: OVCAR-8
[2] = tested on: HT-29
[3] = tested on: HCT-116
[4] = tested on: SW-620
[5] = tested on: T47D
[6] = tested on: NCI-H226
[7] = tested on: RXF 393
[8] = tested on: SF-539
[9] = tested on: HOP-92
[10] = tested on: DU-145
[11] = tested on: MDA-MB-231
[12] = tested on: IGROV-1
[13] = tested on: COLO 205
[14] = tested on: M14
[15] = tested on: SF-295
[16] = tested on: SNB-75
[17] = tested on: NCI/ADR-RES
[18] = tested on: SK-MEL-2
[19] = tested on: CAKI-1
[20] = tested on: MOLT-4
[21] = tested on: SR
[22] = tested on: A498
[23] = tested on: MDA-N
[24] = tested on: TK-10
[25] = tested on: KM12
[26] = tested on: UACC-257
[27] = tested on: A549
[28] = tested on: OVCAR-3
[29] = tested on: HCC 2998
[30] = tested on: 786-0
[31] = tested on: HCT-15
[32] = tested on: NCI-H522
[33] = tested on: SF-268
[34] = tested on: U-251
[35] = tested on: NCI-H23
[36] = tested on: HL-60
[37] = tested on: ACHN
[38] = tested on: UACC-62
[39] = tested on: SK-OV-3
[40] = tested on: SK-MEL-5
[41] = tested on: MCF7
[42] = tested on: SK-MEL-28
[43] = tested on: K562
[44] = tested on: OVCAR-5
[45] = tested on: Malme-3M
[46] = tested on: NCI-H460
[47] = tested on: CCRF-CEM
[48] = tested on: EKVX
[49] = tested on: LOX IMVI
[50] = tested on: HOP-62
[51] = tested on: MDA-MB-435
[52] = tested on: Hs-578T
[53] = tested on: BT-549
[54] = tested on: UO-31
[55] = tested on: SN12C
[56] = tested on: OVCAR-4
[57] = tested on: RPMI-8226
[58] = tested on: SNB-19

Measured: GI50

NC1CC(Cl)c2c(Cl)sc(Cl)c21 (stereo not given)
inactive: [1] > 100 µM | [2] > 100 µM | [3] > 100 µM | [4] > 100 µM | [5] > 100 µM | [6] > 100 µM | [7] 14.2 µM | [8] > 100 µM | [9] > 100 µM | [10] > 100 µM | [11] > 100 µM | [12] > 100 µM | [13] > 100 µM | [14] > 100 µM | [15] > 100 µM | [16] > 100 µM | [17] > 100 µM | [18] > 100 µM | [19] > 100 µM | [20] > 100 µM | [21] 61.8 µM | [22] > 100 µM | [23] > 100 µM | [24] > 100 µM | [25] > 100 µM | [26] > 100 µM | [27] > 100 µM | [28] > 100 µM | [29] 53.2 µM | [30] > 100 µM | [33] > 100 µM | [34] > 100 µM | [35] > 100 µM | [36] > 100 µM | [37] > 100 µM | [38] > 100 µM | [39] > 100 µM | [40] > 100 µM | [41] > 100 µM | [42] > 100 µM | [43] > 100 µM | [44] > 100 µM | [45] > 100 µM | [46] > 100 µM | [47] 34 µM | [48] > 100 µM | [49] > 100 µM | [50] > 100 µM | [51] > 100 µM | [52] > 100 µM | [53] > 100 µM | [54] > 100 µM | [55] > 100 µM | [56] > 100 µM
active: [32] < 0.01 µM
> 100 µM: [31]

NCCCCN(CCCN)Cc1ccc2ccccc2c1
> 100 µM: [31]
inactive: [1] 39.4 µM | [2] 23.3 µM | [3] 36.7 µM | [4] > 100 µM | [5] > 100 µM | [6] 21.5 µM | [7] 63.4 µM | [8] 30.8 µM | [9] 29 µM | [10] 66.7 µM | [11] 32.4 µM | [12] 25.2 µM | [57] > 100 µM | [13] 35.2 µM | [14] 57 µM | [15] 44 µM | [16] 2.94 µM | [17] > 100 µM | [19] 13.8 µM | [20] 34.8 µM | [22] 20.7 µM | [23] 21.3 µM | [24] > 100 µM | [25] 27.4 µM | [26] > 100 µM | [27] 51.9 µM | [29] 10.6 µM | [58] 12.9 µM | [30] 34.2 µM | [32] 13.5 µM | [33] 12.6 µM | [34] 59 µM | [35] 25.3 µM | [36] 67.5 µM | [37] 22.8 µM | [38] 95.7 µM | [39] 96.4 µM | [40] 92.7 µM | [41] 54.1 µM | [42] > 100 µM | [43] > 100 µM | [44] 28.8 µM | [45] 51.8 µM | [46] 15.7 µM | [47] 27.1 µM | [48] 21.3 µM | [49] 29.2 µM | [51] > 100 µM | [52] 11.3 µM | [53] 90.4 µM | [54] 13.7 µM | [55] 12.9 µM | [56] 39.4 µM
